Data as given in US4314061A, “Certain 3,6-bis-(heteroaminoalkoxy) acridines” (priority 1980, dated 1982).

Columns and labels:
Lewis lung carcinoma = test: Antitumor activity against intravenously inoculated Lewis lung carcinoma in mice; assay type: in vivo, BDF1 mice; conditions: Day +19
Experimental: Lewis lung carcinoma cells, 5×10^5 viable cells, were injected intravenously into BDF1 mice. The drug was prepared in normal saline and administered once daily, by the oral route, at doses ranging from 38 mg./kg to 400 mg/kg on days 1, 7, and 13 following tumor cell inoculation. A control group of mice received a saline placebo, instead of drug, by the oral route on the same days of treatment. All mice were sacrificed on day 19 following tumor inoculation, their lungs removed and individually weighed. Additionally, a group of 10 normal, non-tumor bearing BDF1 mice, of the same sex, age, and body weight as the tumor bearing mice, were sacrificed and their lungs removed and weighed to determine the average normal lung weight. The average normal lung weight was subtracted from the weight of lungs from the tumored mice to determine the weight of tumorous tissue present in the lungs of the tumor bearing mice. A postive drug effect is indicated by a ≥58% reduction in the average lung tumor weight of the drug treated mice, relative to the average lung tumor weight of the saline placebo treated mice.
^1 BDF1 male mice inoculated intravenously with 5 ×
10^5 Lewis lung tumor cells on day zero:
3,6bis(2-diethylaminoethoxy)acridine trihydrochloride administered on day
1,7, and 13 after tumor inoculation.
^2 Average lung tumor weight = average weight of lungs from tumor
bearing mice, minus average weight of lungs from normal, nontumor bearing
*Denotes significant (≥58%) inhibition of lung tumor weight.

Columbia SK virus = test: Protection of mice against lethal Columbia SK virus infection by oral pre-treatment; assay type: in vivo, random-bred Swiss male mice; conditions: 400 mg/kg oral
Experimental: At 24, 48, 72 and 96 hours after drug treatment, separate groups of mice were injected SC with an LD95 dose of the interferon sensitive virus, Columbia SK. […] Typically, protection from lethal infection with Columbia SK virus is associated with induction of interferon.

[1] = system: Rauscher Virus-Induced Leukemia; test: Restoration of antibody formation in mice with Rauscher virus-induced leukemia; assay type: in vivo, Balb/c mice; conditions: 100 mg/kg IP
B16 melanoma = test: Surgical-adjuvant antitumor activity against B16 melanoma implanted subcutaneously in footpads; assay type: in vivo, BDF1 mice; conditions: for Average % of tumor weight inhibition / Average tumor weight: Day +21; for No. Survivors/No. Treated: at +90 days
Experimental: BDF1 mice were inoculated subcutaneously in the right hind footpad with 5×10^5 viable B16 melanoma cells, on day zero. The drug was prepared in normal saline and administered by the oral route once daily, on days 1, 7, and 13 following tumor implantation, at doses range from 50 mg/kg to 400 mg/kg. A control group of mice received a saline placebo instead of drug, and another group of tumor bearing mice received the positive control drug cyclophosphamide, at 100 mg/kg, by intraperitoneal injection. On the 21st day after tumor implantation, the mice were anesthesized with Nembutal, and the tumor bearing feet were surgically amputated above the ankle joint. The surgical incision was swabbed with alcohol and sealed with stainless steel wound clips. The tumor bearing feet were individually weighed and the average weight of a normal foot (determined by weighing amputated feet from non-tumor bearing mice of the same sex, age, and body weight) was subtracted to obtain the weight of tumor tissue in the amputated feet. Mice were then observed for deaths until the 90th day after tumor implantation. […]
^1 BDF1 male mice inocluated with 5 × 10^5 B16 melanom
cells subcutaneously in footpad on day zero;
3,6bis(2-diethylaminoethoxy)acridine trihydrochloride administered orally
and Cyclophosphamide intraperitoneally, on days 1, 7, and 13 following
^2 Average tumor weight determined after surgical amputation of tumor
bearing foot on day 21 following tumor implantation.

[2] = system: natural killer lymphocytes (NK cells); test: Stimulation of NK-cell activity in normal mice
[3] = 300 mg/kg oral, * significant (≥58%)
[4] = 400 mg/kg oral, * significant (≥58%)

In the case of CCN(CC)CCOc1ccc2cc3ccc(OCCN(CC)CC)cc3nc2c1.Cl.Cl.Cl, the “Average % tumor inhibition” value (Lewis lung carcinoma; 38 mg/kg oral) is reported as 33%, the “Average lung tumor weight” value (Lewis lung carcinoma; 38 mg/kg oral) is reported as 99 mg and the “No. Survivors/No. Treated” value (Lewis lung carcinoma; 38 mg/kg oral) is reported as 10/12. For the same compound, the “Average % tumor inhibition” value (Lewis lung carcinoma; 75 mg/kg oral) was 5%, the “Average lung tumor weight” value (Lewis lung carcinoma; 75 mg/kg oral) was 139 mg and the “No. Survivors/No. Treated” value (Lewis lung carcinoma; 75 mg/kg oral) was 12/12. For the same compound, the “Average % tumor inhibition” value (Lewis lung carcinoma; 150 mg/kg oral) was 51%, the “Average lung tumor weight” value (Lewis lung carcinoma; 150 mg/kg oral) was 72 mg and the “No. Survivors/No. Treated” value (Lewis lung carcinoma; 150 mg/kg oral) was 12/12. For the same compound, the “Average lung tumor weight” value (Lewis lung carcinoma; 300 mg/kg oral) was 40 mg, the “No. Survivors/No. Treated” value (Lewis lung carcinoma; 300 mg/kg oral) was 12/12 and the “Average % tumor inhibition” value (Lewis lung carcinoma; [3]) was 73%. For the same compound, the “Average lung tumor weight” value (Lewis lung carcinoma; 400 mg/kg oral) was 12 mg, the “No. Survivors/No. Treated” value (Lewis lung carcinoma; 400 mg/kg oral) was 10/12 and the “Average % tumor inhibition” value (Lewis lung carcinoma; [4]) was 92%. The “Survivors/Total (14 Days)” value (Columbia SK virus; -24 hr relative to virus challenge, * p <.01) was 19/20, the “Survivors/Total (14 Days)” value (Columbia SK virus; -48 hr relative to virus challenge, * p <.01) was 10/20 and the “Survivors/Total (14 Days)” value (Columbia SK virus; -72 hr relative to virus challenge) was 1/20. For the same compound, the “Survivors/Total (14 Days)” value (Columbia SK virus; -96 hr relative to virus challenge) was 1/20, the “Serum hemagglutinin titer/saline control titer” value [1] was 512/32 and the “% Increased life-span” value (B16 melanoma; 50 mg/kg oral) was 2%. The Median survival time (B16 melanoma; 50 mg/kg oral) was 54.0 days, the “Average % of tumor weight inhibition” value (B16 melanoma; 50 mg/kg oral) was 33% and the Average tumor weight (B16 melanoma; 50 mg/kg oral) was 403 mg. The “No. Survivors/No. Treated” value (B16 melanoma; 50 mg/kg oral) was 0/12, the “% Increased life-span” value (B16 melanoma; 100 mg/kg oral) was 21% and the Median survival time (B16 melanoma; 100 mg/kg oral) was 64.0 days. The Average tumor weight (B16 melanoma; 100 mg/kg oral) was 225 mg, the “Average % of tumor weight inhibition” value (B16 melanoma; 100 mg/kg oral, * significant (≥58%)) was 63% and the “No. Survivors/No. Treated” value (B16 melanoma; 100 mg/kg oral) was 2/12. For the same compound, the Median survival time (B16 melanoma; 200 mg/kg oral) was > 90.0 days, the Average tumor weight (B16 melanoma; 200 mg/kg oral) was 122 mg and the “Average % of tumor weight inhibition” value (B16 melanoma; 200 mg/kg oral, * significant (≥58%)) was 80%. The “No. Survivors/No. Treated” value (B16 melanoma; 200 mg/kg oral, ** significant) was 7/12, the “% Increased life-span” value (B16 melanoma; 200 mg/kg oral, + significant (≥25%)) was > 70% and the Median survival time (B16 melanoma; 300 mg/kg oral) was > 90.0 days. The Average tumor weight (B16 melanoma; 300 mg/kg oral) was 63 mg, the “Average % of tumor weight inhibition” value (B16 melanoma; [3]) was 90% and the “No. Survivors/No. Treated” value (B16 melanoma; 300 mg/kg oral, ** significant) was 8/12. For the same compound, the “% Increased life-span” value (B16 melanoma; 300 mg/kg oral, + significant (≥25%)) was > 70%, the Median survival time (B16 melanoma; 400 mg/kg oral) was 69.0 days and the Average tumor weight (B16 melanoma; 400 mg/kg oral) was 51 mg. The “Average % of tumor weight inhibition” value (B16 melanoma; [4]) was 92%, the “No. Survivors/No. Treated” value (B16 melanoma; 400 mg/kg oral, ** significant) was 5/12 and the “% Increased life-span” value (B16 melanoma; 400 mg/kg oral, + significant (≥25%)) was 30%. For the same compound, the “% Cytotoxicity” value ([2]; Test 1 (CD1 mice), 75 mg/kg oral, ** p <.01) was 29.5%, the “% Cytotoxicity” value ([2]; Test 1 (CD1 mice), 150 mg/kg oral, ** p <.01) was 37.7% and the “% Cytotoxicity” value ([2]; Test 1 (CD1 mice), 300 mg/kg oral, * p <.05) was 25.8%. The “% Cytotoxicity” value ([2]; Test 2 (BDF1 hybrids), 75 mg/kg oral, ** p <.01) was 44.4%, the “% Cytotoxicity” value ([2]; Test 2 (BDF1 hybrids), 150 mg/kg oral, ** p <.01) was 40.9% and the “% Cytotoxicity” value ([2]; Test 2 (BDF1 hybrids), 300 mg/kg oral, * p <.05) was 38.2%. For the same compound, the “Stimulation of NK cell activity, in words” value ([2]; mouse, in vivo) was “active in this test”.
